Measured values taken from PubChem BioAssay AID248 (DTP/NCI, 2004).
Values joined by “and” are separate entries in the source; they are usually repeats but may differ in a detail not shown here. Equal values may be shown once. Toxic doses and inconclusive results are not listed. Cut-off read from the data, not from the text of the source: active = T/C of 150% or more; inactive = T/C below 125%.

Test system: L1210 leukemia ip in BDF1 mice, survival T/C
Experiment: NCI In Vivo Anticancer Drug Screen. Data for tumor model L1210 Leukemia (intraperitoneal) in B6D2F1 (BDF1) mice
Conditions: endpoint: mean survival time, higher = longer survival
In short: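 Tumor cells were implanted, animals were treated, and survival was followed. The result divides the treated measurement by the vehicle-control measurement.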

[1] = dose: 100.0 mg/kg/injection, schedule: Q01DX009 (ip), vehicle: saline with Tween-80
[2] = dose: 200.0 mg/kg/injection, schedule: Q01DX009 (ip), vehicle: saline with Tween-80
[3] = dose: 400.0 mg/kg/injection, schedule: Q01DX009 (ip), vehicle: saline with Tween-80
[4] = dose: 100.0 mg/kg/injection, schedule: Q04DX002 (ip), vehicle: saline with Tween-80
[5] = dose: 200.0 mg/kg/injection, schedule: Q04DX002 (ip), vehicle: saline with Tween-80
[6] = dose: 400.0 mg/kg/injection, schedule: Q04DX002 (ip), vehicle: saline with Tween-80
[7] = dose: 100.0 mg/kg/injection, schedule: Q04DX003 (ip), vehicle: saline with Tween-80
[8] = dose: 200.0 mg/kg/injection, schedule: Q04DX003 (ip), vehicle: saline with Tween-80
[9] = dose: 50.0 mg/kg/injection, schedule: Q01DX001 (ip), vehicle: saline
[10] = dose: 100.0 mg/kg/injection, schedule: Q01DX001 (ip), vehicle: saline
[11] = dose: 100.0 mg/kg/injection, schedule: Q01DX009 (ip), vehicle: Klucel (hydroxypropylcellulose) (HPC)
[12] = dose: 100.0 mg/kg/injection, schedule: Q04DX003 (ip), vehicle: saline
[13] = dose: 200.0 mg/kg/injection, schedule: Q01DX009 (ip), vehicle: Klucel (hydroxypropylcellulose) (HPC)
[14] = dose: 200.0 mg/kg/injection, schedule: Q04DX003 (ip), vehicle: saline
[15] = dose: 400.0 mg/kg/injection, schedule: Q04DX003 (ip), vehicle: saline
[16] = dose: 100.0 mg/kg/injection, schedule: Q04DX002 (ip), vehicle: saline
[17] = dose: 200.0 mg/kg/injection, schedule: Q04DX002 (ip), vehicle: saline
[18] = dose: 400.0 mg/kg/injection, schedule: Q04DX002 (ip), vehicle: saline
[19] = dose: 100.0 mg/kg/injection, schedule: Q04DX002 (ip), vehicle: Klucel (hydroxypropylcellulose) (HPC)
[20] = dose: 200.0 mg/kg/injection, schedule: Q04DX002 (ip), vehicle: Klucel (hydroxypropylcellulose) (HPC)
[21] = dose: 100.0 mg/kg/injection, schedule: Q01DX001 (ip), vehicle: Klucel (hydroxypropylcellulose) (HPC)

Measured: T/C

COC(=O)C(C)NC(=O)CNC(=O)OCc1ccccc1 (centres undefined)
inactive: [1] 97 % of control | [2] 102 % of control | [3] 92 % of control

Oc1ccccc1C=Nc1ccc(Cl)cc1
inactive: [4] 105 % of control | [5] 105 % of control | [6] 97 % of control

COc1ccccc1NC1=C(NC(C)=O)C(=O)c2ccccc2C1=O
inactive: [7] 95 % of control | [8] 95 % of control | dose: 400.0 mg/kg/injection, schedule: Q04DX003 (ip), vehicle: saline with Tween-80 97 % of control

O=C1NC(=O)C(c2ccc(C(=O)O)cc2)N1 (centres undefined)
inactive: [9] 107 % of control | [10] 105 % of control | dose: 200.0 mg/kg/injection, schedule: Q01DX001 (ip), vehicle: saline 100 % of control | dose: 400.0 mg/kg/injection, schedule: Q01DX001 (ip), vehicle: saline 96 % of control

S=C(N/N=C/c1ccc(Cl)cc1Cl)Nc1cccc2cccnc12
inactive: dose: 5.0 mg/kg/injection, schedule: Q01DX001 (ip), vehicle: saline 96 % of control | dose: 10.0 mg/kg/injection, schedule: Q01DX001 (ip), vehicle: saline 96 % of control | dose: 20.0 mg/kg/injection, schedule: Q01DX001 (ip), vehicle: saline 86 % of control | dose: 40.0 mg/kg/injection, schedule: Q01DX001 (ip), vehicle: saline 98 % of control | dose: 80.0 mg/kg/injection, schedule: Q01DX001 (ip), vehicle: saline 90 % of control

CCCCCCCCCCCCCCCC(=O)CCCCCCCCCCCCCCC
inactive: dose: 100.0 mg/kg/injection, schedule: Q01DX001 (ip), vehicle: other 94 % of control | dose: 200.0 mg/kg/injection, schedule: Q01DX001 (ip), vehicle: other 100 % of control | dose: 400.0 mg/kg/injection, schedule: Q01DX001 (ip), vehicle: other 97 % of control

CNC(C(=O)O)c1ccccc1 (centres undefined)
inactive: dose: 100.0 mg/kg/injection, schedule: Q01DX001 (ip), vehicle: steriod suspending solution 89 % of control | dose: 200.0 mg/kg/injection, schedule: Q01DX001 (ip), vehicle: steriod suspending solution 97 % of control | dose: 400.0 mg/kg/injection, schedule: Q01DX001 (ip), vehicle: steriod suspending solution 87 % of control

CC1=CC(C)(C)NC(=S)N1
inactive: [11] 97 % of control | [12] 113 % of control | [13] 101 % of control | [14] 106 % of control | dose: 400.0 mg/kg/injection, schedule: Q01DX009 (ip), vehicle: Klucel (hydroxypropylcellulose) (HPC) 98 % of control | [15] 107 % of control

C/C=C\C=C\COC(=O)CC(C)C
inactive: [16] 103 % of control | [17] 103 % of control | [18] 103 % of control

O=c1c2ccccc2sc2cccc(Sc3ccccc3)c12
inactive: [1] 101 % of control | [2] 98 % of control | [3] 98 % of control

COc1ccc(CC(C)=C(C#N)C#N)cc1OC
inactive: dose: 25.0 mg/kg/injection, schedule: Q04DX002 (ip), vehicle: saline with Tween-80 103 % of control | dose: 50.0 mg/kg/injection, schedule: Q04DX002 (ip), vehicle: saline with Tween-80 97 % of control | [4] 97 % of control

C=CCC1(CCCCC)C(=O)NC(=S)NC1=O
inactive: dose: 75.0 mg/kg/injection, schedule: Q01DX001 (ip), vehicle: saline 100 % of control | dose: 150.0 mg/kg/injection, schedule: Q01DX001 (ip), vehicle: saline 100 % of control

C=CCc1ccc(OC(=O)Nc2ccc(C)cc2Cl)c(OC)c1
inactive: dose: 100.0 mg/kg/injection, schedule: Q04DX002 (ip), vehicle: carboxymethylcellulose (CMC) 93 % of control and 101 % of control | dose: 200.0 mg/kg/injection, schedule: Q04DX002 (ip), vehicle: carboxymethylcellulose (CMC) 96 % of control and 100 % of control | dose: 400.0 mg/kg/injection, schedule: Q04DX002 (ip), vehicle: carboxymethylcellulose (CMC) 97 % of control and 107 % of control

O=[N+]([O-])c1ccc(-c2ccc([N+](=O)[O-])c(-c3ccccc3)c2)cc1
inactive: [7] 93 % of control | [8] 88 % of control

CC(C)C(Br)C(=O)NC(Cc1ccccc1)C(=O)O (centres undefined)
inactive: [1] 96 % of control | [2] 96 % of control | [3] 92 % of control

O=C(O)C(F)(F)C(F)(F)F.[Ag]
inactive: dose: 75.0 mg/kg/injection, schedule: Q01DX001 (ip), vehicle: acetone 87 % of control

CN1CC(=O)N2c3ccccc3CC2C1=O (centres undefined)
inactive: [4] 102 % of control | [5] 113 % of control | [6] 102 % of control

OC1C2CC3C1C3C2c1ccccc1 (centres undefined)
inactive: [11] 102 % of control | [13] 91 % of control

NC(CCl)=NCC12CC3CC(CC(C3)C1)C2
inactive: [19] 98 % of control | [20] 104 % of control and 87 % of control

CCCCN(CCCC)CCCCO
inactive: dose: 50.0 mg/kg/injection, schedule: Q01DX009 (ip), vehicle: saline with Tween-80 116 % of control | [1] 101 % of control | [7] 102 % of control | [2] 101 % of control | [8] 96 % of control

COC(=O)/C=C(\C(=O)OC)N1CCCCC1
inactive: dose: 18.75 mg/kg/injection, schedule: Q01DX009 (ip), vehicle: saline with Tween-80 98 % of control | dose: 37.5 mg/kg/injection, schedule: Q01DX009 (ip), vehicle: saline with Tween-80 101 % of control | dose: 75.0 mg/kg/injection, schedule: Q01DX009 (ip), vehicle: saline with Tween-80 91 % of control | [1] 107 % of control

CN(C)C1(Cc2ccccc2)c2ccccc2-c2ccccc21
inactive: dose: 50.0 mg/kg/injection, schedule: Q04DX002 (ip), vehicle: Klucel (hydroxypropylcellulose) (HPC) 103 % of control | [19] 106 % of control | [20] 95 % of control

NC(=O)NC1CON(C(N)=O)C1=O (centres undefined)
inactive: [16] 94 % of control | [17] 112 % of control | [18] 94 % of control

O=c1cc2ccccc2c(O)[nH]1
inactive: dose: 25.0 mg/kg/injection, schedule: Q01DX001 (ip), vehicle: saline 107 % of control | [9] 111 % of control | [21] 100 % of control | [10] 114 % of control

Oc1ccc2ccccc2c1N=Nc1nccs1
inactive: dose: 12.5 mg/kg/injection, schedule: Q01DX009 (ip), vehicle: Klucel (hydroxypropylcellulose) (HPC) 96 % of control | dose: 25.0 mg/kg/injection, schedule: Q01DX009 (ip), vehicle: Klucel (hydroxypropylcellulose) (HPC) 95 % of control | dose: 50.0 mg/kg/injection, schedule: Q01DX009 (ip), vehicle: Klucel (hydroxypropylcellulose) (HPC) 101 % of control | [21] 94 % of control | dose: 100.0 mg/kg/injection, schedule: Q04DX003 (ip), vehicle: Klucel (hydroxypropylcellulose) (HPC) 100 % of control | dose: 200.0 mg/kg/injection, schedule: Q01DX001 (ip), vehicle: Klucel (hydroxypropylcellulose) (HPC) 101 % of control | dose: 200.0 mg/kg/injection, schedule: Q04DX003 (ip), vehicle: Klucel (hydroxypropylcellulose) (HPC) 96 % of control | dose: 400.0 mg/kg/injection, schedule: Q01DX001 (ip), vehicle: Klucel (hydroxypropylcellulose) (HPC) 98 % of control | dose: 400.0 mg/kg/injection, schedule: Q04DX003 (ip), vehicle: Klucel (hydroxypropylcellulose) (HPC) 94 % of control

CC(O)C(C)(O)C(=O)O (centres undefined)
inactive: dose: 100.0 mg/kg/injection, schedule: Q01DX009 (ip), vehicle: saline 100 % of control | [12] 104 % of control | dose: 200.0 mg/kg/injection, schedule: Q01DX009 (ip), vehicle: saline 90 % of control | [14] 95 % of control | [15] 101 % of control

CCCCCCCS(=O)(=O)c1nc2ccccc2[nH]1
inactive: [19] 95 % of control | [20] 101 % of control | dose: 400.0 mg/kg/injection, schedule: Q04DX002 (ip), vehicle: Klucel (hydroxypropylcellulose) (HPC) 104 % of control

O=S(CCO)CCS(=O)CCO (centres undefined)
inactive: dose: 75.0 mg/kg/injection, schedule: Q01DX009 (ip), vehicle: saline 95 % of control | [12] 106 % of control | dose: 150.0 mg/kg/injection, schedule: Q01DX009 (ip), vehicle: saline 101 % of control | [14] 110 % of control | dose: 300.0 mg/kg/injection, schedule: Q01DX009 (ip), vehicle: saline 97 % of control | [15] 100 % of control
